Assay results from PubChem BioAssay AID2060610 (Molecular Pharmacology Branch, DTP, NCI, 2025).
Values joined by “and” are separate entries in the source; they are usually repeats but may differ in a detail not shown here. Identical values can stand only once.

Test system: 616215-338-R-J1-PDC complex spheroids, viability % test/control
Assay: Anticancer human tumor 616215-338-R-J1-PDC patient-derived colon adenocarcinoma cell line growth inhibition [CLK]
Settings: for viability, T/C: stronger effect = lower value
Text: A high-throughput screen of multi-cell type tumor spheroids was designed to identify active combinations of […] and targeted small molecules. Complex spheroids include a stromal component modeled by human endothelial cells (HUVEC) and fibroblasts modeled by human mesenchymal stem cells (MSCs). The concentration ranges selected for each drug and investigational agent were based upon clinically achievable concentrations if the clinical Cmax of the agent was known.
Compounds. The drugs and investigational agents: cirtuvivint (SM08502; NSC835563), CC-671 (NSC850746), vemurafenib (NSC761431), tapotoclax (NSC804041), sotorasib (NSC818433), adagrasib (NSC831453), MRTX-1133 (NSC836407), BAY2416964 (NSC825713), copanlisib (NSC816437), inavolisib (NSC800729), abemaciclib (NSC768073), osimertinib (NSC779217), entinostat (NSC756642), eltanexor (KPT-8602, NSC794443), venetoclax (NSC766270), ceralasertib (NSC777638), bortezomib (NSC756655), olaparib (NSC753686), talazoparib (NSC767125), alisertib (NSC759677), peposertib (NSC802822), gemcitabine (NSC613327), 5-fluorouracil (NSC19893), SN-38 (NSC673596), oxaliplatin (NSC266046), paclitaxel (NSC125973), and doxorubicin (NSC123127), were obtained from the National Cancer Institute (NCI) Developmental Therapeutics Program Chemical Repository. The FDA-approved anticancer drug set is available from the Developmental Therapeutics Program at https://dtp.cancer.gov/organization/dscb/obtaining/available plates.htm. […] The stock solutions were prepared in dimethyl sulfoxide (DMSO, Sigma-Aldrich, St. Louis, MO, cat. D2650), except for the platinum complexes which were prepared in saline (Quality Biological, Gaithersburg, MD, cat. 114-055-101), at 800-fold the tested concentration and stored at -70 degrees C prior to their use. All drugs and investigational agents were tested over a range starting from a high concentration at or near the clinical Cmax and decreasing in half-log increments. If the clinical Cmax for an agent had not been determined, the highest concentration tested was 10 microM.
Cell Culture. All cells were maintained in an incubator at 37 degrees C and 5% CO2 with 95% humidity. The PDC lines were cultured according to standard operating procedures established by the NCI PDMR. Briefly, all PDCs were thawed and cultured in Matrigel-coated flasks prepared with a working solution of 1X Ham's F-12 nutrient mix, without supplementation (Invitrogen, Waltham, MA, cat. 11765054), 100 U/mL penicillin-streptomycin (Invitrogen, cat. 15140122), and 2.5% Matrigel (Corning Inc., Corning, NY, cat. 354248) for the first three passages. The 947758-054-R-J2-PDC line was cultured in 6B/Colon 1A media, which includes advanced DMEM/F-12 (Thermo Fisher Scientific, cat. 12634028), 10 mM HEPES (Thermo Fisher Scientific, cat. 15630080), 1X GlutaMAX supplement (Thermo Fisher Scientific, cat. 35050061), 0.1 mg/mL primocin (InvivoGen, cat. ant-pm-2), 10% defined fetal bovine serum, heat inactivated (HyClone Laboratories Inc., cat. SH30070.03HI), 1.25 mM N-Acetyl-L-cysteine (Sigma-Aldrich, cat. A9165), 10 mM nicotinamide (Sigma-Aldrich, cat. N0636), 1X B-27 supplement (Thermo Fisher Scientific, cat. 17504044), 1X N-2 supplement (Thermo Fisher Scientific, cat. 17502048), and 10 microM Y-27632 dihydrochloride (Tocris Bioscience, cat. 1254). The 876862-298-R-J1-PDC was cultured in 6E media, which includes all 6B/Colon 1A media components plus 50% L-WRN conditioned media (ATCC, cat. CRL-3276), 50 ng/mL recombinant human EGF recombinant protein (hEGF; Thermo Fisher Scientific, cat. PHG0311), 10 ng/mL recombinant human fibroblast growth factor 10 (hGFG-10; PeproTech, cat. 100-26), 1 ng/mL recombinant human fibroblast growth factor 2 (hFGF-2; PeproTech, cat. 100-18B), and 1 µM prostaglandin E2 (PGE2; Tocris, cat. 2296). The 227483-062-R1-J1-PDC line was cultured in Panc media, containing all 6E components except hFGF-2, with the addition of 500 nM SB-431542 (Selleckchem, cat. S1067) and 10 nM gastrin (Tocris, cat. 3006). […]
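Note: spheroids exposed to agents for 7 days.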
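Throughout, for viability, T/C: 100% = DMSO vehicle wells.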

With `CC1(C)CCC(CN2CCN(c3ccc(C(=O)NS(=O)(=O)c4ccc(NCC5CCOCC5)c([N+](=O)[O-])c4)c(Oc4cnc5[nH]ccc5c4)c3)CC2)=C(c2ccc(Cl)cc2)C1` the viability, T/C (compound 0.0316 µM) was 88.4% and 102%, the viability, T/C (compound 0.1 µM) was 95.6% and 102% and the viability, T/C (compound 0.316 µM) was 97.5% and 98.5%. The viability, T/C (compound 1 µM) was 90.2% and 96.7%, the viability, T/C (compound 3.16 µM) was 86.7% and 87.4% and the IC50 (curve of compound) was 5250 nM and > 10000 nM.
With `Nc1ccccc1NC(=O)c1ccc(CNC(=O)OCc2cccnc2)cc1` + CN1CCN(c2cc(C(=O)Nc3cc4cc(-c5cnn(C)c5)ccc4cn3)ccn2)CC1 the IC50 (curve of first compound, second compound 0.0316 µM) was 4240 nM, the IC50 (curve of first compound, second compound 0.1 µM) was 2540 nM and the IC50 (curve of first compound, second compound 0.316 µM) was < 31.6 nM. The IC50 (curve of first compound, second compound 1 µM) was < 31.6 nM, the IC50 (curve of first compound, second compound 3.16 µM) was < 31.6 nM and the IC50 (curve of first compound, second compound 10 µM) was < 31.6 nM. It also gave a viability, T/C (second compound 0.0316 µM, first compound 0.0316 µM) of 95%, a viability, T/C (second compound 0.0316 µM, first compound 0.1 µM) of 95.3% and a viability, T/C (second compound 0.0316 µM, first compound 0.316 µM) of 110%. The viability, T/C (second compound 0.0316 µM, first compound 1 µM) was 118%, the viability, T/C (second compound 0.0316 µM, first compound 3.16 µM) was 62.7% and the viability, T/C (second compound 0.0316 µM, first compound 10 µM) was 12.6%. For the same molecule, the viability, T/C (second compound 0.1 µM, first compound 0.0316 µM) was 110%, the viability, T/C (second compound 0.1 µM, first compound 0.1 µM) was 123% and the viability, T/C (second compound 0.1 µM, first compound 0.316 µM) was 118%. The viability, T/C (second compound 0.1 µM, first compound 1 µM) was 119%, the viability, T/C (second compound 0.1 µM, first compound 3.16 µM) was 34.1% and the viability, T/C (second compound 0.1 µM, first compound 10 µM) was 8.04%. For the same molecule, the viability, T/C (second compound 0.316 µM, first compound 0.0316 µM) was 26.6%, the viability, T/C (second compound 0.316 µM, first compound 0.1 µM) was 31.3% and the viability, T/C (second compound 0.316 µM, first compound 0.316 µM) was 20.9%. For the same molecule, the viability, T/C (second compound 0.316 µM, first compound 1 µM) was 18.9%, the viability, T/C (second compound 0.316 µM, first compound 3.16 µM) was 3.92% and the viability, T/C (second compound 0.316 µM, first compound 10 µM) was 2.67%. The viability, T/C (second compound 1 µM, first compound 0.0316 µM) was 0.16%, the viability, T/C (second compound 1 µM, first compound 0.1 µM) was 0.17% and the viability, T/C (second compound 1 µM, first compound 0.316 µM) was 2.95%. It also gave a viability, T/C (second compound 1 µM, first compound 1 µM) of 0.09%, a viability, T/C (second compound 1 µM, first compound 3.16 µM) of 3.76% and a viability, T/C (second compound 1 µM, first compound 10 µM) of 3.49%. For the same molecule, the viability, T/C (second compound 3.16 µM, first compound 0.0316 µM) was 0.1%, the viability, T/C (second compound 3.16 µM, first compound 0.1 µM) was 0.71% and the viability, T/C (second compound 3.16 µM, first compound 0.316 µM) was 0.63%. It also gave a viability, T/C (second compound 3.16 µM, first compound 1 µM) of 0.09%, a viability, T/C (second compound 3.16 µM, first compound 3.16 µM) of 1.87% and a viability, T/C (second compound 3.16 µM, first compound 10 µM) of 1.46%. The viability, T/C (second compound 10 µM, first compound 0.0316 µM) was 0.08%, the viability, T/C (second compound 10 µM, first compound 0.1 µM) was 0.52% and the viability, T/C (second compound 10 µM, first compound 0.316 µM) was 3.6%. It also gave a viability, T/C (second compound 10 µM, first compound 1 µM) of 0.17%, a viability, T/C (second compound 10 µM, first compound 3.16 µM) of 0.18% and a viability, T/C (second compound 10 µM, first compound 10 µM) of 2.22%.
